Assay results as given in BindingDB's records for doi:10.1016/j.ejmech.2023.115404 (Southwest Jiaotong University, 2023).

Target: Dual leucine zipper kinase (MAP3K12) (Homo sapiens)
Experiment: Binding affinity to DLK (unknown origin) assessed as inhibition constant

| SMILES | Ki [nM] |
| --- | --- |
| CC(=O)N1CCC(c2cc(Nc3cc(C(F)(F)F)ccn3)nc(N3CCC(F)(F)C3)n2)CC1 | 33 |
| CC(C)n1nc(Nc2cc(C(F)(F)F)ccn2)cc1C1CCNCC1 | 145 |
